Assay results published in patent US11401278B2, “Macrocyclic indole derivatives” (The Broad Institute, Inc., priority 2017, dated 2022).

Target: BCL-XL (Homo sapiens (Human), UniProt Q07817)
Test: Protein-protein interaction assay BCL-XL/Bad BH3 peptide (BCL-XL assay, TR-FRET)
Assay type: binding
Conditions: His-BCL-XL / Bad BH3 peptide, median
Description: Assay 2 Protein-Protein Interaction Assay: BCL-XL/Bad BH3 Peptide (BCL-XL Assay)
The dose-dependent inhibition by the compounds described in this invention of the interaction between BCL-XL and the BH3 domain of Bad (both human) was determined using a steady state binding competition assay with time-resolved fluorescence energy transfer (TR-FRET) readout. For that purpose BCL-XL (amino acids 1-212, C-terminal fused to a hexahistidine (6×His) tag (SEQ ID 3) and a synthetic Bad BH3-derived peptide of sequence Biotin-PEG2-PEG2-NLWAAQRYGRELRR-Nle-SDEFVDSFKK-amide (SEQ ID 4) served as protein receptor and tracer ligand respectively. The recombinant BCL-XL protein (expressed in E. coli) was purchased from BPS Bioscience (San Diego, Calif., USA). The Bad BH3-derived peptide can be obtained from e.g. Biosyntan (Berlin, Germany).
In the assay 11 different concentrations of each compound (0.1 nM, 0.33 nM, 1.1 nM, 3.8 nM, 13 nM, 44 nM, 0.15 μM, 0.51 μM, 1.7 μM, 5.9 μM and 20 μM) were typically measured as duplicates in the same microtiter plate. For that, 100-fold concentrated DMSO solutions were prepared by serial dilutions (1:3.4) of a 2 mM stock solution in a clear, 384-well microtiter plate (Greiner Bio-One, Frickenhausen, Germany). From there, 50 nl were transferred in a dark test plate (Greiner Bio-One, Frickenhausen, Germany). The assay was initiated by addition of 2 μl of a 2.5-fold concentrated His-BCL-XL solution (usually for a 1 nM end concentration in 5 μl reaction volume) in aqueous assay buffer [50 mM Tris/HCl pH 7, 100 mM sodium chloride (NaCl), 50 mM potassium fluoride (KF), 0.005% Tween-20, 2 mM DTT, 0.1% bovine gamma globulin (BGG)] to the compounds in the assay plate. This was followed by a 10-minute incubation step at 22° C. for pre-equilibration of the putative complex between His-BCL-XL and the compounds. After that, 3 μl of a 1.67-fold concentrated solution (in assay buffer) consisting of Bad BH3-derived peptide (1 nM end concentration) and TR-FRET detection reagents [1.67 nM anti-His-Eu cryptate and 1.67 nM streptavidin-XL665 (both from Cisbio Bioassays, Codolet, France)], were added.
The mixture was incubated in the dark for one hour at 22° C. and then overnight at 4° C. The formation of BCL-XL/Bad complexes was determined by measuring the resonance energy transfer of the anti-His- Eu-cryptate antibody to the streptavidin-XL665 present in the reaction. For that purpose, the fluorescence emission at 620 nm and 665 nm after excitation at 330-350 nm was measured in a TR-FRET measuring instrument, for instance a Rubystar or a Pherastar (both from BMG Lab Technologies, Offenburg, Germany) or a Viewlux (Perkin-Elmer). The ratio of the emission at 665 nm and at 622 nm was used as indicator of the amount of BCL-XL/Bad complexes present.
The resulting data (ratio) were normalized, taking 0% inhibition as the mean value of control measurements (usually 32 data points) where all reagents were included. In this case 50 nl DMSO were used instead of compounds. A 100% inhibition corresponded to the mean value of control measurements (usually 32 data points) where all reagents except BCL-XL were included. IC50 values were determined by regression analysis based on a 4 parameter equation (minimum, maximum, IC50, Hill; Y=Max+(Min−Max)/(1+(X/IC50)^HiII) using the Screener Software (Genedata).

Sequence of BCL-XL (Q07817 other isoform, or with tags, fused parts or gaps): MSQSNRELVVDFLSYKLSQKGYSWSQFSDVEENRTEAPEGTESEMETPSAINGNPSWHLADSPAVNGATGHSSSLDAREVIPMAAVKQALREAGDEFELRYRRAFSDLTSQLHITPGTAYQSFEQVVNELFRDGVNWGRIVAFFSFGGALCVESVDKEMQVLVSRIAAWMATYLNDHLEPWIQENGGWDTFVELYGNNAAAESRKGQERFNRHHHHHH

Compound | IC50 [µM]
CCc1c2c(nn1C)CN(C)S(=O)(=O)CCCn1c(C(=O)O)c(CCCOc3cc(C)c(Cl)c(C)c3)c3ccc(F)c-2c31 (racemic) [Example 33, (rac)-1-(3-(4-Chloro-3,5-dimethylphenoxy)propyl)-12-ethyl-13-fluoro-8,11-dimethyl-5,6,9,11-tetrahydro-4H,8H-pyrazolo[3′,4′:4,5][1]thia[2,8]diazacycloundecino[6,7,8-hi]indole-2-carboxylic acid 7,7-dioxide] | > 20
CCc1c2c(nn1C)CN(C)S(=O)(=O)CCCn1c(C(=O)O)c(CCCOc3cccc4c3CCCC4)c3ccc(F)c-2c31 (racemic) [Example 34, (rac)-12-Ethyl-13-fluoro-8,11-dimethyl-1-(3-((5,6,7,8-tetrahydronaphthalen-1-yl)oxy)propyl)-5,6,9,11-tetrahydro-4H,8H-pyrazolo[3′,4′:4,5][1]thia[2,8]diazacycloundecino[6,7,8-hi]indole-2-carboxylic acid 7,7-dioxide] | > 20
CCc1c2c(nn1C)CN(C)S(=O)(=O)CCCn1c(C(=O)O)c(CCCOc3ccc(F)c4ccccc34)c3ccc(F)c-2c31 (racemic) [Example 35, (rac)-12-Ethyl-13-fluoro-1-(34(4-fluoronaphthalen-1-yl)oxy)propyl)-8,11-dimethyl-5,6,9,11-tetrahydro-4H,8H-pyrazolo[3′,4′:4,5][1]thia[2,8]diazacycloundecino[6,7,8-hi]indole-2-carboxylic acid 7,7-dioxide] | > 20
Cc1c2c(nn1C)CN(C1CC1)S(=O)(=O)CCCn1c(C(=O)O)c(CCCOc3cccc4cc(F)ccc34)c3ccc(Cl)c-2c31 (racemic) [Example 41, (rac)-4-chloro-14-cyclopropyl-7-{3-[(6-fluoro-1-naphthyl)oxy]propyl}-2,3-dimethyl-11,12,14,15-tetrahydro-2H,10H-pyrazolo[3′,4′:4,5][1,2,8]thiadiazacycloundecino[6,7,8-hi]indole-8-carboxylic acid 13,13-dioxide] | 19
Cc1c2c(nn1C)C(CCN1CCOCC1)N(C)S(=O)(=O)CCCn1c(C(=O)O)c(CCCOc3cccc4ccccc34)c3cccc-2c31 (racemic) [Example 44, (rac)-2,3,14-trimethyl-15-[2-(rac)-(morpholin-4-yl)ethyl]-7-[3-(1-naphthyloxy)propyl]-11,12,14,15-tetrahydro-2H,10H-pyrazolo[3′,4′:4,5][1,2,8]thiadiazacycloundecino[6,7,8-hi]indole-8-carboxylic acid 13,13-dioxide (Mixture of Stereoisomers)] | > 20
Cc1c2c(nn1C)C(N1CCOCC1)CCN(C)S(=O)(=O)CCCn1c(C(=O)O)c(CCCOc3cccc4cc(F)ccc34)c3ccc(Cl)c-2c31 (racemic) [Example 47, (rac)-15-chloro-1-(3-((6-fluoronaphthalen-1-yl)oxy)propyl)-8,13,14-trimethyl-11-(rac)-morpholino-5,6,9,10,11,13-hexahydro-4H,8H-pyrazolo[3′,4′:6,7][1]thia[2,10]diazacyclotridecino[8,9,10-hi]indole-2-carboxylic acid 7,7-dioxide (Mixture of Stereoisomers)] | > 20
Cc1c2c(nn1C)C(CCN1CCOCC1)N(C)S(=O)(=O)CCCn1c(C(=O)O)c(CCCOc3cccc4cc(F)ccc34)c3ccc(Cl)c-2c31 (racemic) [Example 48, (rac)-4-chloro-7-{3-[(6-fluoro-1-naphthyl)oxy]propyl}-2,3,14-trimethyl-15-(rac)-[2-(morpholin-4-yl)ethyl]-11,12,14,15-tetrahydro-2H,10H-pyrazolo[3′,4′:4,5][1,2,8]thiadiazacycloundecino[6,7,8-hi]indole-8-carboxylic acid 13,13-dioxide (Mixture of Stereoisomers)] | > 20
COc1ccc(CN2Cc3nn(C)c(C)c3-c3c(Cl)ccc4c(CCCOc5cccc6cc(F)ccc56)c(C(=O)O)n(c34)CCCS2(=O)=O)c(OC)c1 (racemic) [Example 49, (rac)-4-chloro-14-(2,4-dimethoxybenzyl)-7-{3-[(6-fluoro-1-naphthyl)oxy]propyl}-2,3-dimethyl-11,12,14,15-tetrahydro-2H,10H-pyrazolo[3′,4′:4,5][1,2,8]thiadiazacycloundecino[6,7,8-hi]indole-8-carboxylic acid 13,13-dioxide] | > 20
Cc1c2c(nn1C)CNS(=O)(=O)CCCn1c(C(=O)O)c(CCCOc3cccc4cc(F)ccc34)c3ccc(Cl)c-2c31 (racemic) [Example 50, (rac)-4-chloro-7-{3-[(6-fluoro-1-naphthyl)oxy]propyl}-2,3-dimethyl-11,12,14,15-tetrahydro-2H,10H-pyrazolo[3′,4′:4,5][1,2,8]thiadiazacycloundecino[6,7,8-hi]indole-8-carboxylic acid 13,13-dioxide] | > 20
CCc1c2c(nn1C)CN(C1CC1)S(=O)(=O)CCCn1c(C(=O)O)c(CCCOc3cccc4cc(F)ccc34)c3ccc(Cl)c-2c31 (racemic) [Example 53, (rac)-4-chloro-14-cyclopropyl-3-ethyl-7-{3-[(6-fluoro-1-naphthyl)oxy]propyl}-2-methyl-11,12,14,15-tetrahydro-2H,10H-pyrazolo[3′,4′:4,5][1,2,8]thiadiazacycloundecino[6,7,8-hi]indole-8-carboxylic acid 13,13-dioxide] | 16
CCc1c2c(nn1C)C(CCC1CCOCC1)N(C)S(=O)(=O)CCCn1c(C(=O)O)c(CCCOc3cccc4cc(F)ccc34)c3ccc(Cl)c-2c31 (racemic) [Example 59, (rac)-4-chloro-3-ethyl-7-{3-[(6-fluoro-1-naphthyl)oxy]propyl}-2,14-dimethyl-15-[2-(tetrahydro-2H-pyran-4-yl)ethyl]-11,12,14,15-tetrahydro-2H,10H-pyrazolo[3′,4′:4,5][1,2,8]thiadiazacycloundecino[6,7,8-hi]indole-8-carboxylic acid 13,13-dioxide (Racemate 2)] | 16
CCc1c2c(nn1C)C(CCC1CCOCC1)N(C)S(=O)(=O)CCCn1c(C(=O)O)c(CCCOc3cccc4cc(F)ccc34)c3ccc(Cl)c-2c31 (racemic) [Example 60, (rac)-4-chloro-3-ethyl-7-{3-[(6-fluoro-1-naphthyl)oxy]propyl}-2,14-dimethyl-15-[2-(tetrahydro-2H-pyran-4-yl)ethyl]-11,12,14,15-tetrahydro-2H,10H-pyrazolo[3′,4′:4,5][1,2,8]thiadiazacycloundecino[6,7,8-hi]indole-8-carboxylic acid 13,13-dioxide (Racemate 1)] | > 20
Cc1c2c(nn1C)C(CCN1CCOCC1)N(C)S(=O)(=O)CCCn1c(C(=O)O)c(CCCOc3cccc4cc(F)ccc34)c3ccc(Cl)c-2c31 (racemic) [Example 65, (rac)-4-chloro-7-{3-[(6-fluoronaphthalen-1-yl)oxy]propyl}-2,3,14-trimethyl-15-(rac)-[2-(morpholin-4-yl)ethyl]-13,13-dioxo-10,11,12,13,14,15-hexahydro-2H-13lambda^6-pyrazolo[3′,4′:4,5][1,2,8]thiadiazacycloundecino[6,7,8-hi]indole-8-carboxylic acid (Mixture of Stereoisomers)] | > 20
CCc1c2c(nn1C)CN(C)S(=O)(=O)CCCn1c(C(=O)O)c(CCCOc3cccc4cc(F)ccc34)c3ccc(F)c-2c31 (single isomer, unassigned; enantiomer 1) [Example 8, (+)-3-Ethyl-4-fluoro-7-{3-[(6-fluoronaphthalen-1-yl)oxy]propyl}-2,14-dimethyl-13,13-dioxo-10,11,12,13,14,15-hexahydro-2H-13λ^6-pyrazolo[3′,4′:4,5][1,2,8]thiadiazacycloundecino-[6,7,8-hi]indole-8-carboxylic acid (Enantiomer 1)] | > 20
